Test results as given in patent US11655244B2, “Carbazole compounds and methods of use thereof” (GSNO Therapeutics, Inc, priority 2017, dated 2023).
Where two headings read alike, the source gives them in different places.

Legend:
GSNOR enzyme [1] = molecular target: T1, GSNOR enzyme (Homo sapiens, UniProt P11766); assay: GSNOR inhibition assay (rate of NADH consumption, 340 nm absorbance); assay type: biochemical; conditions: Table 2b; read-out: IC50 Micromolar
GSNOR enzyme [2] = molecular target: T1, GSNOR enzyme; assay: as above; assay type: biochemical
Description: The following compounds were also prepared based on the methods described herein, using the appropriate starting materials. Table 2a and Table 2b also provides the % GSNOR inhibition at 20 μM of compounds described herein. […] The buffer was 100 mM phosphate buffer (pH 7.4.) The rate of NADH consumption for each well was determined by ultraviolet spectroscopy. Plates were read on a Molecular Devices Spectra Max UV/Visible Spectrophotometer/plate reader and the change in 340 nm absorbance at 25° C. was recorded for each well at 10 sec intervals over the duration of the recording period (2˜5 minutes). The rate was measured from the linear portion of the curve. Final test compound concentration was 20 μM. The mean % inhibition from 3 test compound wells and 5 control wells was measured as the percentage of the mean no compound+enzyme−the mean no enzyme, no compound control.

IL-6 = assay: LPS/cytokine assay (mouse inflammation assay), IL-6; assay type: in vivo, CD-1 male mice; conditions: for LPS/IL6 Lowest tested active: CD-1 male mice, IP or IV, cytokine typically 6 hrs after LPS
Description: Table 2b also includes additional biological data of compounds described herein. The LPS/cytokine Assay was carried out in CD-1 male mice. The assay measured the level of various cytokines, including IL-6, IL-17, and IL-23, after induction by bacterial liposaccharide (LPS). Compounds were dosed by IP or IV routes of administration at varying times before and after LPS and the cytokine concentrations were measured at varying times, typically 6 hrs, after LPS by standard methods using ELISA kits.
BIOLOGICAL TESTING: Compounds 10 and 17 from Table 1 were tested in a mouse inflammation assay. Briefly, CD-1 mice were dosed with compound, 12 hrs before injecting mice I.P. with the potent cytokine inducer, bacterial lipopolysaccharide (LPS). The mice were euthanized 6 hrs after the LPS was injected and their serum prepared by standard methods. The concentration of IL-6 in the serum of each experimental animal was measured using an IL-6 ELISA kit from Enzo. The compounds tested were active.
This LPS/cytokine assay was carried out in healthy mice and measured the level of cytokine IL-6, IL-17, and 23 induction by LPS. Compounds are dosed (either orally (“p.o.”) or intravenously (“i.v.”) at varying times before and after LPS, and the cytokines are measured at varying times after LPS. The effect of the tested compounds (Table 5) on IL-6 release is shown in FIG. 7. The effect of the tested compounds (Table 6) on IL-17 an IL-23 release is shown in FIG. 11 and FIG. 12, respectively.

[3] = Table 2a, test compound 20 μM, pH 7.4, 25° C., read-out: % Inhibit. at 20 μM
[4] = Table 2b, test compound 20 uM, read-out: % GSNOR Inhibition at 20 uM

T1 sequence (P11766 whole entry): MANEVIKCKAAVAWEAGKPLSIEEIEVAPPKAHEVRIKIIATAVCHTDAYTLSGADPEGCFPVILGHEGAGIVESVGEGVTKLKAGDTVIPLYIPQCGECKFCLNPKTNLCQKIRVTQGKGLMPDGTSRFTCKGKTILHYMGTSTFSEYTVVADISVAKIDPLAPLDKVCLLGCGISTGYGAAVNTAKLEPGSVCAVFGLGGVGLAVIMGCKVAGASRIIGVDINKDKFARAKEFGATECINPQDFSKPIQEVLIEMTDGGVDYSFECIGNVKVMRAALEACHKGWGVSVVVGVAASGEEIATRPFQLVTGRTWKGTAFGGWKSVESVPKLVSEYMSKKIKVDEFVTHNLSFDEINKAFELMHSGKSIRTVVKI

Structure (SMILES) | IC50 (GSNOR enzyme [1]) | inhibition at 20 µM (GSNOR enzyme [2]; [3]) | inhibition at 20 µM (GSNOR enzyme [2]; [4]) | LPS/IL6 Lowest tested active (IL-6) | IL-6 in serum after LPS (mouse inflammation assay) (IL-6; dosed 12 hrs before LPS I.P., serum 6 hrs after LPS)
NC(=O)CCn1c2cc(Cn3ccnc3)ccc2c2ccc(C(=O)O)cc21 [Compound 8, 9-(3-amino-3-oxopropyl)-7-[(1H-imidazol-1-yl)methyl]-9H-carbazole-2-carboxylic acid] | 1000 to 5000 nM | 80% | 80% |  | 
NC(=O)CCn1c2ccc(-n3ccnc3)cc2c2ccc(C(=O)O)cc21 [Compound 10, 9-(3-amino-3-oxopropyl)-6-(1H-imidazo-1-yl)-9H-carbazole-2-carboxylic acid] | < 1000 nM | 85% | 75% | 30 mg/kg | active
NC(=O)c1ccc(-n2c3cc(Cn4ccnc4)ccc3c3ccc(C(=O)O)cc32)c([N+](=O)[O-])c1 [Compound 16, 9-(4-aminocarbonyl-2-nitrophenyl)-7-[(1H-imidazol-1-yl)methyl]-9H-carbazole-2-carboxylic acid] | 1000 to 5000 nM | 89% | 89% |  | 
N#Cc1ccc(-n2c3ccc(-n4ccnc4)cc3c3ccc(CCC(=O)O)cc32)cc1 [Compound 18] | > 5000 nM |  | 72.4% |  | 
Cc1cc(C#N)ccc1-n1c2ccc(-n3ccnc3)cc2c2ccc(CCC(=O)O)cc21 [Compound 19] | 1000 to 5000 nM |  | 81.3% |  | 

The next lines start with results.

IC50 (GSNOR enzyme [1]) | inhibition at 20 µM (GSNOR enzyme [2]; [3]) | inhibition at 20 µM (GSNOR enzyme [2]; [4]) | Structure (SMILES) | LPS/IL6 Lowest tested active (IL-6) | IL-6 in serum after LPS (mouse inflammation assay) (IL-6; dosed 12 hrs before LPS I.P., serum 6 hrs after LPS)
1000 to 5000 nM |  | 88.9% | NC(=O)c1ccc(-n2c3ccc(-n4ccnc4)cc3c3ccc(CCC(=O)O)cc32)cc1 [Compound 20] | 0.3 mg/kg | 
1000 to 5000 nM |  | 93.6% | Cc1cc(C(N)=O)ccc1-n1c2ccc(-n3ccnc3)cc2c2ccc(CCC(=O)O)cc21 [Compound 21] | 0.3 mg/kg | 
 |  | 81.4% | O=C(O)CCc1ccc2c3cc(-n4ccnc4)ccc3n(-c3ccc(Cl)cc3)c2c1 [Compound 22] |  | 
 |  | 93.4% | O=C(O)CCc1ccc2c3cc(-n4ccnc4)ccc3n(-c3ccc(O)cc3)c2c1 [Compound 23] |  | 
